Assay [1] relates to membrane integration of GypC. In words: In vitro membrane insertion assay of GypC with ER microsomes (selectivity control). Type of assay: biochemical, canine. Particulars: 1 µM compound. On the procedure: Following the successful synthesis of analogue 3, we first analyzed its effects on the in vitro membrane integration of our two model protein substrates, Ii and GypC (Figure 6A–C).
Linear DNA of the short form of human HLA class II histocompatibility antigen gamma chain (Ii; P04232, isoform 2, residues 17–232) or human glycophorin C (GypC; P04921) were generated by PCR and transcribed into RNA using T7 RNA polymerase (Promega). Membrane insertion assays (20 µL, 1 h at 30 °C, containing 6.5% (v/v) nuclease-treated ER microsomes (from stock with OD280 = 44/mL)), endoglycosidase Hf (New England Biolabs) treatment, sample resolution by SDS-PAGE (16% polyacrylamide gels) and gel drying were performed as previously described. Following exposure to a phosphorimaging plate for 24–72 h, radiolabeled products were visualized using a Typhoon FLA-7000 (GE Healthcare, Tokyo, Japan) and the ratio of the signal intensity for the N-glycosylated (XGly) and non-glycosylated (0Gly) forms obtained using AIDA v.5.0 (Raytest Isotopenmeβgeräte). This value was then expressed relative to the matched DMSO control (set to 100%) in order to estimate the mean relative insertion (± SEM) from insertion experiments performed in triplicate (n = 3, biologically independent experiments). […]

The test system of assay [2] is HCT116 Sec61α-G80W cells. In words: Resazurin-based cell viability assay in HCT116 Sec61α-G80W cells. More on the design: species or system human. Particulars: 50 nM, 72 h. From the text:
To confirm that Sec61α is the primary target of open-chain analogues and that this interaction underlies their cytotoxic effects, we next used a resazurin-based cell viability assay (Figure 3F) to compare the effects of each compound on the growth of HCT-116 cells that were wild-type for Sec61α (HCT116 Sec61α-WT) or carrying a heterozygous point mutant in SEC61A1 (HCT116 Sec61α-G80W) that confers resistance to Ipom-F, and reduces binding of mycolactone to the Sec61 translocon by mechanism that involves an alteration in translocon dynamics.
The human breast cancer cell line (MDA-MB-231) was maintained in a DMEM high glucose culture medium supplemented with 10% (v/v) fetal bovine serum (FBS) and 2 mM L-glutamine. […] Cytotoxicity assays were performed in triplicate sets as previously described and viable cells were counted using an automated cell counter (Bio-Rad TC20) immediately before each experiment. […] After that, all cells were incubated at 37 °C for a further 1–3 h and the emission of each well at 620 nm was detected using a Synergy H1 Hybrid multi-mode plate reader (BioTek, Agilent Technologies, Palo Alto, CA, USA) at excitation 580 nm. […] IC50 value estimates were determined using nonlinear regression to fit data to a curve of variable slope (four parameters) using the least-squares fitting method. […]
Background: Resazurin is reduced to fluorescent resorufin, in cell work by metabolically active cells.

The subject of assay [3] is HCT116 Sec61α-WT cells. In words: Resazurin-based cell viability assay in HCT116 Sec61α-WT cells. More on the design: species or system human. Particulars: HCT116 Sec61α-WT cells, 72 h. On the procedure: Parental (Sec61α-WT) […] All cell lines were maintained in a 5% CO2 humidified incubator at 37 °C. Cytotoxicity assays were performed in triplicate sets as previously described and viable cells were counted using an automated cell counter (Bio-Rad TC20) immediately before each experiment. Compound stock solutions in DMSO (10 mM) were diluted with supplemented culture media (MDA-MB-231 cells: high glucose DMEM; HCT116 Sec61α-WT and Sec61α-G80W cells: McCoy’s (modified) 5A) to make a series of gradient fresh working solutions at equal DMSO percentage immediately prior to each test. […] For MDA-MB-231 cells, the media were discarded and […] fresh medium containing 10% (v/v) alamarBlue HS cell viability reagent (resazurin stock solution) (ThermoFisher, Waltham, MA, USA, A50100) was added to each well. For Sec61α-WT or Sec61α-G80W HCT-116 cells, the media was not discarded and alamarBlue HS cell viability reagent (resazurin stock solution) (ThermoFisher, Waltham, MA, USA, A50100) was added to 10% (v/v). After that, all cells were incubated at 37 °C for a further 1–3 h and the emission of each well at 620 nm was detected using a Synergy H1 Hybrid multi-mode plate reader (BioTek, Agilent Technologies, Palo Alto, CA, USA) at excitation 580 nm. […] IC50 value estimates were determined using nonlinear regression to fit data to a curve of variable slope (four parameters) using the least-squares fitting method.

Assay [4] has as its target T1, Sec61-mediated protein translocation (membrane integration of Ii) (Canis lupus familiaris, UniProt P38377).
T1 construct: cell-free translation system supplemented with ER microsomes derived from canine pancreas; from tissue; host or cells: canine pancreas ER microsomes (nuclease-treated); the Ii substrate was translated in vitro from T7-transcribed RNA
In words: In vitro membrane insertion assay of Ii with ER microsomes. Type of assay: biochemical, canine. From the text:
Having previously established that the principal molecular basis for the cytotoxicity of Ipom-F is its strong, yet reversible, binding to Sec61α and the resultant wide-ranging blockade of Sec61-mediated protein translocation at the ER [13], we sought evidence that this mechanism also underlies the cytotoxic effects of 1 and other open-chain analogues. […] For comparative purposes, we analyzed the effects of 2 [13] and two closed-chain compounds: Ipom-F and the diester-modified analogue 22 [11] in parallel (Figure 3A).
Following the resolution of radiolabeled proteins by SDS-PAGE (Figure 3B), we used the efficiency with which the N-terminal domain of the type II integral membrane protein Ii (short form of HLA class II histocompatibility antigen gamma chain, isoform 1) was N-glycosylated inside the ER lumen as a robust reporter for the authentic membrane integration of this model Sec61-dependent protein client (Figure 3B, right upper panel, 0Gly versus 2 Gly forms).
Linear DNA of the short form of human HLA class II histocompatibility antigen gamma chain (Ii; P04232, […], residues 17–232) or human glycophorin C (GypC; P04921) were generated by PCR and transcribed into RNA using T7 RNA polymerase (Promega). Membrane insertion assays (20 µL, 1 h at 30 °C, containing 6.5% (v/v) nuclease-treated ER microsomes (from stock with OD280 = 44/mL)), endoglycosidase Hf (New England Biolabs) treatment, sample resolution by SDS-PAGE (16% polyacrylamide gels) and gel drying were performed as previously described. Following exposure to a phosphorimaging plate for 24–72 h, radiolabeled products were visualized using a Typhoon FLA-7000 (GE Healthcare, Tokyo, Japan) and the ratio of the signal intensity for the N-glycosylated (XGly) and non-glycosylated (0Gly) forms obtained using AIDA v.5.0 (Raytest Isotopenmeβgeräte). This value was then expressed relative to the matched DMSO control (set to 100%) in order to estimate the mean relative insertion (± SEM) from insertion experiments performed in triplicate (n = 3, biologically independent experiments). IC50 value estimates were determined in Prism 8 (GraphPad, San Diego, CA, USA) using nonlinear regression to fit data to a curve of variable slope (four parameters) using the least-squares fitting method, with the top and bottom plateaus of the curve defined as 100% and 7.67% (the mean of all data at 500 µM across all compounds), respectively.

Each structure is given as a SMILES string.

The text below walks through data of article PMC9320607, “Synthesis, Biological Evaluation and Docking Studies of Ring-Opened Analogues of Ipomoeassin F” (Molecules, 2022).

T1 sequence (P60058 whole entry): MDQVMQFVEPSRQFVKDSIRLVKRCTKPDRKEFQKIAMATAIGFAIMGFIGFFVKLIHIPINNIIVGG
T1 sequence (P38377 2-476): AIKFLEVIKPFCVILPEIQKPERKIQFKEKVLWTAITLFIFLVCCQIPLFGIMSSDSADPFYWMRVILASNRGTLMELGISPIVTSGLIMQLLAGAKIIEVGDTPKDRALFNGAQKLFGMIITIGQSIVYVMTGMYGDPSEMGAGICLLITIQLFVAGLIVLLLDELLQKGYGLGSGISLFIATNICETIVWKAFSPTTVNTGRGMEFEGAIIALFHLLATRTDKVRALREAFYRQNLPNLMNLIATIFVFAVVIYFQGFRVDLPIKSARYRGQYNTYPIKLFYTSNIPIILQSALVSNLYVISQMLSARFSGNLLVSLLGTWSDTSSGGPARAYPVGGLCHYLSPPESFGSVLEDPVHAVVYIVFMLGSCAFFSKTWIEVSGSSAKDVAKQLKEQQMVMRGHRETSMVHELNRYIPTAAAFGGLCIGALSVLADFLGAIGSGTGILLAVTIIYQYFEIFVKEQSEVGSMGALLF
T1 sequence (P60467 2-96, further chain): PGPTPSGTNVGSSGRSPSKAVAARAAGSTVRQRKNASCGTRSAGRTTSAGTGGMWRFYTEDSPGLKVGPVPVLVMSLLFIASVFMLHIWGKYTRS

As to `CC=C(C)C(=O)OC1C(O)C(OC2C(OC(CCCCC)CCCCC)OC(C)C(OC(C)=O)C2O)OC(COC(=O)CCC(=O)OCCCC)C1OC(=O)C=Cc1ccccc1` (stereo not drawn) [analogue 3], the “effect on membrane integration of GypC” value in assay [1] was “did not affect”. Further, in assay [2], the “effect on cell viability” value is “cell death was not observed”. Also, the cell death in assay [3] (50 nM) is ~ 58%. Further, the IC50 in assay [3] (Homo sapiens, HCT-116, titration 25 µM–1 nM, read-out: IC50 (cytotoxicity)) is 40 nM; in assay [4] (estimated from titration 500 µM–5 nM, read-out: IC50 (in vitro membrane integration of Ii)), 242 nM. In addition, the “reduction in Ii membrane integration” value in assay [4] (1 µM compound) is 73–86%.
